In patent publication US10633354B2, “Substituted tricyclic heterocyclic compounds” (BRISTOL-MYERS SQUIBB COMPANY, priority 2016, dated 2020):

Experiments:
S1P1 = biological target: T1, S1P1 (Homo sapiens, UniProt P21453); assay: Receptor [35S] GTPγS binding assay (S1P1 GTPγS); assay type: biochemical; conditions: membranes from S1P1/CHO cells; for S1P1 GTPgS (Ymax): maximal response; for EC50: phosphorylated compounds, read-out: S1P1 GTPgS (EC50)
T1 construct: expressed in transfected cells; host or cells: CHO cells (S1P1/CHO), membranes
T1 sequence (P21453 whole entry): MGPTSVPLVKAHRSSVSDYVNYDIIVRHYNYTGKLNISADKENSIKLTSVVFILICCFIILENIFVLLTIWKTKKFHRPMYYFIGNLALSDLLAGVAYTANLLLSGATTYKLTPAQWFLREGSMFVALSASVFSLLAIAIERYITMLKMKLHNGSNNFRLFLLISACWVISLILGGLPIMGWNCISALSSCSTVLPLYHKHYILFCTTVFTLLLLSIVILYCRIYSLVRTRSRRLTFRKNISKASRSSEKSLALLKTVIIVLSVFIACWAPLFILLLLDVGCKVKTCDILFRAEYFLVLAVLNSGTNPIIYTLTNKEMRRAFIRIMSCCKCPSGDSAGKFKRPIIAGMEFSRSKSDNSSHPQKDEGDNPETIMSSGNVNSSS
Description: (§1) The compounds of Formula (I), Formula (II), Formula (III), and Formula (IV), and salts thereof in which R2 is —OH, engage their biological targets (e.g. S1P1) after bioactivation through phosphorylation of the alcohol to provide an active phosphate ester compound of Formula (I), Formula (II), Formula (III), and Formula (IV), or salts thereof, in which R2 is —OP(O)(OH)2. In vitro characterization of biological activity of the examples was conducted on synthetically prepared samples of the phosphorylated compounds.
(§2) Receptor [^35S] GTPyS Binding Assays: (S1P1 GTPyS/S1P3 GTPyS)
(§3) Compounds were loaded in a 384 Falcon v-bottom plate (0.5 μl/well in a 11 point, 3-fold dilution). Membranes prepared from S1Pi/CHO cells or EDG3-Ga15-bla HEK293T cells (EDG3 equivalent S1P3) were added to the compound plate (40 μl/well, final protein 3 μg/well) with MULTIDROP®. [^35S] GTP (1250 Ci/mmol, Perkin Elmer) was diluted in assay buffer: 20 mM HEPES, pH7.5, 10 mM MgCl2, 150 mM NaCl, 1 mM EGTA (ethylene glycol tetraacetic acid), 1 mM DTT (Dithiothreitol), 10 μM GDP, 0.1% fatty acid free BSA, and 10 μg/ml Saponin to 0.4 nM. 40 μl of the [^35S] GTP solution was added to the compound plate with a final concentration of 0.2 nM. The reaction mixture was kept at room temperature for 45 min. At the end of incubation, all the mixtures in the compound plate were transferred to Millipore 384-well FB filter plates via the VELOCITY 11® Vprep liquid handler. The filter plate was washed with water 4 times by using the manifold Embla plate washer and dried at 60° C. for 45 min. MicroScint 20 scintillation fluid (30 μl) was added to each well for counting on the Packard TOPCOUNT®. ECso is defined as the agonist concentration that corresponds to 50% of the Ymax (maximal response) obtained for each individual compound tested.
(§4) A smaller value for GTPyS S1 P1 EC50 value indicated greater activity for the compound in the GTPyS S1P1 binding assay. A larger value for the GTPyS S1 P3 EC50 value indicated less activity in the GTPyS S1 P3 binding assay (Table A).

S1P3 = biological target: T2, S1P3 (Homo sapiens, UniProt Q99500); assay: Receptor [35S] GTPγS binding assay (S1P3 GTPγS); assay type: biochemical; conditions: membranes from EDG3-Ga15-bla HEK293T cells; read-out: S1P3 GTPgS (EC50)
T2 construct: expressed in transfected cells; host or cells: HEK293T cells (EDG3-Ga15-bla), membranes
T2 sequence (Q99500 whole entry): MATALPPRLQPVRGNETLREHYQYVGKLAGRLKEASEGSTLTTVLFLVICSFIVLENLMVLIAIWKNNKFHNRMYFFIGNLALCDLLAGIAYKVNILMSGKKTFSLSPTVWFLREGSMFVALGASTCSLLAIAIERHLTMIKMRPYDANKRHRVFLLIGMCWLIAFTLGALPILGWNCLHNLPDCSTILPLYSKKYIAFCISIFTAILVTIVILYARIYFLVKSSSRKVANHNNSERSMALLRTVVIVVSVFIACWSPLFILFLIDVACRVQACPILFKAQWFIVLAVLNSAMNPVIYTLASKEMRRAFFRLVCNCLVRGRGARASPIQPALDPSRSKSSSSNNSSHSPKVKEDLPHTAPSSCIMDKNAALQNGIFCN
Description: as §1, §2, §3, §4

SMILES | S1P1 GTPgS (Ymax) (S1P1) | EC50 (S1P1) | EC50 (S1P3)
CCCCOCCOc1nc2c(s1)-c1ccc([C@H]3CC[C@](N)(COP(=O)(O)O)C3)cc1CC2 [Example 26, ((1R,3S)-1-amino-3-(2-(2-butoxyethoxy)-4,5-dihydronaphtho[2,1-d]thiazol-7-yl)cyclopentyl)methyl Dihydrogen Phosphate] | 107% | 0.001 µM | 0.19 µM
CCCCCCCc1nc2c(s1)-c1ccc([C@H]3CC[C@](N)(COP(=O)(O)O)C3)cc1CC2 [Example 27] | 98% | 0.01 µM | > 3 µM
CCCc1nc2c(s1)-c1ccc([C@H]3CC[C@](N)(COP(=O)(O)O)C3)cc1CC2 [Example 28] | 79% | 0.019 µM | > 3 µM
CCCCOc1nc2c(s1)-c1ccc([C@H]3CC[C@](N)(COP(=O)(O)O)C3)cc1CC2 [Example 29] | 58% | 0.03 µM | > 3 µM
CCCCCCOc1nc2c(s1)-c1ccc([C@H]3CC[C@](N)(COP(=O)(O)O)C3)cc1CC2 [Example 30, ((1R,3S)-1-amino-3-(2-(hexyloxy)-4,5-dihydronaphtho[2,1-d]thiazol-7-yl)cyclopentyl) methyl dihydrogen phosphate] | 102% | 0.012 µM | > 3 µM
CCCCSc1nc2c(s1)-c1ccc([C@H]3CC[C@](N)(COP(=O)(O)O)C3)cc1CC2 [Example 31, ((1R,3S)-1-amino-3-(2-(butylthio)-4,5-dihydronaphtho[2,1-d]thiazol-7-yl)cyclopentyl)methyl dihydrogen phosphate] | 58% | 0.02 µM | > 3 µM
CCCCNc1nc2c(s1)-c1ccc([C@H]3CC[C@](N)(COP(=O)(O)O)C3)cc1CC2 [Example 32, ((1R,3S)-1-amino-3-(2-(butylamino)-4,5-dihydronaphtho[2,1-d]thiazol-7-yl)cyclopentyl)methyl dihydrogen phosphate] | 49% | 0.133 µM | > 3 µM
